Laboratory results: patent US20040192889A1, “Cytotoxic peptides and peptidomimetics based thereon, and methods for use thereof” (priority 2001, published 2004)
“Also recorded” adds a separate entry of the source. Residues, ends and D or L forms follow the SMILES beside them. No end group written: not given here. *: point of attachment. Cbz = O=C(OCc1ccccc1)*; CH2F = FC*

Assays:
hippocampal neurons = test: Toxicity of transduced peptides to neurons in primary hippocampal cultures (NeuN immunostaining, quantitative image analysis); type: cell-based; conditions: for NeuN-immunoreactive (neuronal) population: 10 μM peptide
Procedure: (§1) Hippocampal or cortical neurons derived from 17-day old rat embryos were plated in modified minimum essential media (MEM-PAK) supplemented with 5% horse serum. Three days later, the cultures were treated with 10 μM cytosine arabinoside (AraC). Twenty-four h later the cells were treated with the peptide conjugates and incubated for an additional 24 or 48 h. Cells were incubated in the presence of 50 μM of the general caspase inhibitor BOC-Asp(Ome)-FMK (BAF) for 30 min prior to addition of peptides or with an equivalent volume of dimethylsulfoxide (DMSO) and then maintained in the presence of the same concentration of the inhibitor for the duration of the experiment. In all experiments involving Aβ, a 1 mM Aβ42 stock solution was used that had been incubated at 37° C. for 48 h and then stored at 4° C. to allow for the formation of Aβ fibrils. Aβ42 was purchased from AnaSpec (San Jose, Calif.).
(§2) Peptides were synthesized and purified at the Stanford University Protein and Nucleic Acid (PAN) Facility. All peptide stocks were solubilized in water at 1 or 10 mM concentration. […] A control peptide used was a fusion of the human immunodeficiency virus-1 TAT protein (HIV-TAT) delivery peptide sequence (Hileman et al., FEBS Lett. 415:145-154 (1997) and the first helix of the p75 receptor intracellular domain.
Hippocampal cultures were fixed in 4% paraformaldehyde in 1× phosphate-buffered saline (PBS) for 20 min at room temperature (RT). Cells were then rinsed in 1× PBS and then washed once in 1× Tris-buffered saline (TBS) followed by blocking in 10% donkey serum (Jackson ImmunoResearch Labs, West Grove, Pa.) with 0.1% Triton X-100 in 1×TBS for 1 h at RT. Cultures were incubated overnight in the presence of rabbit anti-GFAP (Sigma, St. Louis) at 1:800 dilution and mouse anti-NeuN (Chemicon, Temecula, Calif.) at 1:100 at 4° C. Negative controls were incubated in 2 mg/ml rabbit and mouse preinimune IgGs (Sigma, St. Louis). All primary antibodies were diluted in 1×TBS containing 10% donkey serum. Cultures were washed for 90 min in 4 changes of 1×TBS and incubated in the presence of donkey anti-rabbit IgG conjugated to Cy3 and donkey anti-mouse IgG conjugated to FITC (Jackson ImmunoResearch Laboratories, Inc., West Grove, Pa.), at 1:250 and 1:400, respectively, in 1×TBS containing 1% donkey serum for 1 h at RT. Cells were washed for 90 min in 4 changes of 1×TBS and mounted in VectaShield-DAPI mounting medium (Vector Laboratories, Burlingame, Calif.). Images were acquired using Nikon Eclipse-800 microscope and Optronics MagnaFire camera and software, and analyzed using Compix Simple PCI software. The total surface area corresponding to red and green fluorescence in each confocal image was determined by image analysis using Simple PCI software (Compix, Inc., Philadelphia).
(§3) To investigate whether this was due to a greater sensitivity of neurons than glial cells to DP-APPC31-induced death, 3-day-old rat hippocampal cultures were exposed to increasing concentrations of DP-APPC31 or control DP peptide and fixed 48 h after transduction. The fixed cultures were then immunostained with antibodies specific for GFAP (red) and NeuN (green). A quantitative assessment of the total area of red and green fluorescence present in low-magnification confocal images of representative fields obtained from three independent experiments was performed using a digital image analysis system (SimplePCl, Compix, Inc, Philadelphia).
APLP1C31 induces death in primary hippocampal cultures. […] If this event occurs in vivo, APLP1 would have the potential to generate a pro-apoptotic C-terminal peptide homologous to APPC31. To deterinine whether the peptide generated by caspase cleavage of APLP1 is toxic, a fusion of APLP1C31 to the Antennapedia delivery peptide (DP-APLP1C31) was generated and assayed in protein transduction experiments. […]

glial cells = test: Toxicity of transduced peptides to glial cells in primary hippocampal cultures (GFAP immunostaining, quantitative image analysis); type: cell-based, rat
Procedure: as §1
(§4) Peptides were synthesized and purified at the Stanford University Protein and Nucleic Acid (PAN) Facility. All peptide stocks were solubilized in water at 1 or 10 mM concentration. […]
Hippocampal cultures were fixed in 4% paraformaldehyde in 1× phosphate-buffered saline (PBS) for 20 min at room temperature (RT). […] Images were acquired using Nikon Eclipse-800 microscope and Optronics MagnaFire camera and software, and analyzed using Compix Simple PCI software. The total surface area corresponding to red and green fluorescence in each confocal image was determined by image analysis using Simple PCI software (Compix, Inc., Philadelphia).
as §3, with “The fixed cultures were then immunostained with antibodies specific for GFAP (red) and NeuN (green).” left out, “Philadelphia). […]” for “Philadelphia).”

[1] = test system: 293T human embryonic kidney cells; test: Toxicity of C31 peptide to 293T cells; type: cell-based
Procedure: as §2
(§5) Primary hippocampal or cortical neuronal culturesor 293 cells transduced with the different penetratin-peptide conjugates were assayed for viability at 24 and 48 h after transduction by trypan blue exclusion or by conversion of 3-[4,5-Dimethylthiazol-2-yl]-2,5-diphenyltetrazolium bromide; Thiazolyl blue (MTT, Sigma, St. Louis) to formazan by dehydrogenase enzymes (MTT, Sigma, St. Louis) and by the LIVE/DEAD assay (Molecular Probes, Eugene, Oreg.), which distinguishes live cells by the presence of intracellular esterase activity, which results in the conversion of the non-fluorescent cell permeant calcein-AM to the intensely green fluorescent calcein. Calcein is retained witlin live cells. Ethidium homodimer-1 (EthD-1) enters cells with damaged membranes and becomes intensely fluorescent when bonding to nucleic acids. EthD-1 is excluded by the intact plasma membrane of live cells. Media were removed and replaced by 4 μM EthD-1 and 2 μM calcein in PBS. […]

[2] = test system: primary hippocampal cultures; test: Viability of primary hippocampal cultures by trypan blue exclusion; type: cell-based, rat
Procedure: as §1, §4
(§6) Aβ exacerbates the sensitivity of hippocampal cultures to C31 toxicity. […] Thirty-six hours later, the cultures were evaluated by the LIVE/DEAD assay. […] Cells were stained with Hoechst 33342 and scored for nuclear condensation.

N2a neuroblastoma cells = test: Annexin V-FITC staining of transfected N2a cells; type: cell-based, mouse; conditions: for relative risk (RR) of annexin V-FITC staining with expression / annexin V-positive among construct-positive cells: expression by transfection; for annexin V-positive among construct-positive cells: no tamoxifen or staurosporine, 24 h
Procedure: Mouse N2a neuroblastoma cells were grown at 37° C. and 5% CO2 in […] Dulbecco's modified Eagle's medium and 45% OptiMEM I (Life Technologies) supplemented with 10% fetal bovine serum and 2 mM glutamine. Plasmid constructs were introduced into the N2a cells with the LipofectAMINE plus transfection reagent (Life Technologies) according to the manufacturer's instructions.
N2a cells were plated on glass cover slips treated with polylysine and were transfected as described above. At 24 h after transfection, cells were directly stained with annexin V-FITC for apoptosis in tissue culture media, according to the manufacturer's instructions (annexin V-FITC Apoptosis Detection Kit; Calbiochem, La Jolla, Calif.). After being stained with annexin V-FITC, cells were fixed for 20 min in 4% parafoimaldehyde in phosphate-buffered saline and permeabilized in 0.5% Triton X-100 in phosphate-buffered saline for 5 min. After being blocked in 5% BSA in phosphate-buffered saline, the cells were incubated for 1 h at room temperature with CT15, diluted 1:2,000. In parallel, cells were stained with propidium iodide after annexin V staining and paraformaldehyde fixation but without permeabilization to verify membrane integrity; the combination of amnexin V staining and membrane integrity indicated apoptosis without secondary necrosis. The primary antibody was detected with Texas Red®-conjugated secondary antibody against rabbit (Molecular Probes, Eugene, Oreg.). Negative controls, which included preimmune serum and cells transfected with pcDNA3 (mock transfection), were assayed in parallel using the protocol described above. The cells were analyzed by confocal nmcroscopy using a BioRad MRC-1024 system. Cells in five random fields were counted for each slide, in duplicate for each condition. The number of cells positive and negative for APP or C31 and apoptosis (annexin V-FITC) were determined, and relative risk was calculated (RR=p1/p2)=concordant staining [(+/+) times (−/−)] divided by discordant staining [(+/−) times (−/+)].
Double-labeling of APP and annexin V in N2a cells after transfection was performed. N2a cells were transfected with either APP or C31 followed by staining with annexin V-FITC to visualize apoptotic cells. Transfected cells were immunolocalized with CT15 followed by Texas Red conjugated secondary antibody to visualize APP or C31 expression. When expressed in N2a cells, C31 but not APP is associated with apoptosis. A high proportion of C31 transfected cells are positive for amnexin V-FITC (green outline of the cell; RR=6.3), whereas in APP-expressing cells, annexin V-FITC staining is sparse (RR=0.77). In control cells transfected with pcDNA3 (mock transfection; control), there is no staining with annexin V-FITC and essentially no staining of endogenous APP at this antibody dilution. Images are representations of four different fields of view of each of three separate experiments.

PTB domain of Fe65 = test: Binding of C31 to the PTB domain of Fe65
Description: Binding assays can be used to confirm this observation with respect to the C31 peptide derived from APLP1.

[3] = test system: primary hippocampal cultures; test: Viability of primary hippocampal cultures by MTT assay; type: cell-based, rat; conditions: increasing concentrations
Procedure: as §1
as §2, with “domain. […]” for “domain.”

[4] = test system: primary hippocampal cultures; test: LIVE/DEAD assay (calcein / EthD-1) of primary hippocampal cultures; type: cell-based, rat; conditions: for toxicity of Aβ alone: 36 hours
Procedure: as §1, §5, §6

[5] = test system: primary hippocampal cultures; test: Hoechst 33342 staining of condensed, fragmented (apoptotic) nuclei in primary hippocampal cultures; type: cell-based, rat; conditions: for percentage of apoptotic nuclei (Hoechst 33342): cultures preincubated with 5 μM Aβ for 24 h, then exposed to C-C31 or not
Procedure: as §1, §5, §6

[6] = synthetic peptide delivered into primary cultures

Compound: AAVTPEERHLSKMQQNGYENPTYKFFEQMQN [C31]
- CC50 (hippocampal neurons; primary culture, read-out: LC50 for hippocampal neurons): 1 to 2 µM
- CC50 (glial cells; rat, astrocytes (glial cells in primary hippocampal cultures)): 10 to 25 µM
- CC50 [1]: 50 to 100 µM
- CC50 ([2]; preincubation with 5 μM Aβ for 24 h, then transduction in absence of Aβ, read-out: LC50 in primary cultures pre-exposed to sublethal fibrillar Aβ): < 0.5 µM
- relative risk (RR) of annexin V-FITC staining with expression (N2a neuroblastoma cells): 6.3
- annexin V-positive among construct-positive cells (N2a neuroblastoma cells): 76±10%
- binding to the PTB domain of Fe65 (PTB domain of Fe65): binds to the PTB domain of Fe65

Compound: CC(C)[C@H](NC(=O)OCc1ccccc1)C(=O)N[C@@H](C)C(=O)N[C@@H](CC(=O)O)C(=O)CF [zVAD.fmk, benzoxycarbonyl-Val-Ala-Asp-CH2F, reference compound] (Cbz-Val-Ala-Asp-CH2F)
- effect on annexin V staining of C31 transfected cells (N2a neuroblastoma cells; zVAD.fmk treatment): decreased annexin V staining of C31 transfected cells to control levels

Compound: PMLTLEEQQLRELQRHGYENPTYRFLEERP [APLP1-C31]
- LD50 for neurons (hippocampal neurons; [6]): around 3 micromolar
- LD50 for glial cells (glial cells; [6]): 35 to 40 µM

Compound: COC(=O)C[C@H](NC(=O)OC(C)(C)C)C(=O)CF [BAF, BOC-Asp(Ome)-FMK, reference compound]
- effect of caspase inhibitor on DP-APLP1C31 toxicity (hippocampal neurons; BAF 50 μM): delayed DP-APLP1C31 toxicity
- effect of caspase inhibitor on DP-APPC31 toxicity (hippocampal neurons; BAF 50 μM, DP-APPC31 10 μM): delayed the toxicity; also recorded: blocked the toxicity

Compound: CC[C@H](C)[C@H](NC(=O)[C@H](CCCCN)NC(=O)[C@@H](NC(=O)[C@H](CCC(N)=O)NC(=O)[C@H](CCCNC(=N)N)NC(=O)[C@@H](N)CSSC[C@H](N)C(=O)N[C@@H](C)C(=O)N[C@@H](C)C(=O)N[C@H](C(=O)N[C@H](C(=O)N1CCC[C@H]1C(=O)N[C@@H](CCC(=O)O)C(=O)N[C@@H](CCC(=O)O)C(=O)N[C@@H](CCCNC(=N)N)C(=O)N[C@@H](Cc1c[nH]cn1)C(=O)N[C@@H](CC(C)C)C(=O)N[C@@H](CO)C(=O)N[C@@H](CCCCN)C(=O)N[C@@H](CCSC)C(=O)N[C@@H](CCC(N)=O)C(=O)N[C@@H](CCC(N)=O)C(=O)N[C@@H](CC(N)=O)C(=O)NCC(=O)N[C@@H](Cc1ccc(O)cc1)C(=O)N[C@@H](CCC(=O)O)C(=O)N[C@@H](CC(N)=O)C(=O)N1CCC[C@H]1C(=O)N[C@H](C(=O)N[C@@H](Cc1ccc(O)cc1)C(=O)N[C@@H](CCCCN)C(=O)N[C@@H](Cc1ccccc1)C(=O)N[C@@H](Cc1ccccc1)C(=O)N[C@@H](CCC(=O)O)C(=O)N[C@@H](CCC(N)=O)C(=O)N[C@@H](CCSC)C(=O)N[C@@H](CCC(N)=O)C(=O)N[C@@H](CC(N)=O)C(=O)O)[C@@H](C)O)[C@@H](C)O)C(C)C)[C@@H](C)CC)C(=O)N[C@@H](Cc1c[nH]c2ccccc12)C(=O)N[C@@H](Cc1ccccc1)C(=O)N[C@@H](CCC(N)=O)C(=O)N[C@@H](CC(N)=O)C(=O)N[C@@H](CCCNC(=N)N)C(=O)N[C@@H](CCCNC(=N)N)C(=O)N[C@@H](CCSC)C(=O)N[C@@H](CCCCN)C(=O)N[C@@H](Cc1c[nH]c2ccccc12)C(=O)N[C@@H](CCCCN)C(=O)N[C@@H](CCCCN)C(=O)O [DP-APPC31]
- NeuN-immunoreactive (neuronal) population (hippocampal neurons): significantly reduced; also recorded: markedly reduced
- NeuN-immunoreactive (neuronal) population (hippocampal neurons; listed as C-C31): marked decrease
- glial (GFAP) population (glial cells; 10 μM peptide, 48 h after transduction): significantly reduced
- number of viable cells converting MTT into formazan [3]: reduced the number of viable cells
- viability of hippocampal neuronal cultures ([4]; 10 μM, 24 h after transduction): marked decrease in viability
- percentage of apoptotic nuclei (Hoechst 33342) [5]: 72%
- percentage of condensed, fragmented nuclei, concentration dependence ([5]; increasing concentrations, 30 hours after transduction): increase in the percentage of condensed, fragmented nuclei

Compound: Aβ: Aβ42 purchased from AnaSpec, stock incubated to allow formation of Aβ fibrils [reference compound]
- dead cells with Aβ alone ([2]; 5 μM Aβ): did not increase the number of dead cells
- toxicity of Aβ alone ([4]; 50 μM): decrease the number of viable cells in the culture substantially
- toxicity of Aβ alone ([4]; concentrations up to 25 μM): No measurable toxicity
- percentage of apoptotic nuclei (Hoechst 33342) [5]: ~9%

Compound: APP: wild-type human APP695 expressed from pcDNA3 by transfection
- relative risk (RR) of annexin V-FITC staining with expression (N2a neuroblastoma cells): 0.77
- annexin V-positive among construct-positive cells (N2a neuroblastoma cells): 13±5%
